Data set [1] concerns Normal human dermal fibroblasts. Nature of the data set: Collagen production promoting effect (ELISA of free collagen in supernatant). It counts as cell-based. The settings on record: sample at 10 mM or less, cultured 48 hours, % of control group (100%), N=3. As for the experimental part: Normal human dermal fibroblasts were prepared in D-MEM containing 5% (v/v) fetal bovine serum to a cell density of 2.5 × 10^4 cell s /well, and then pre-incubated for 24 hours on a 96-well plate. After removing the medium, samples prepared to a predetermined concentration in D-MEM containing 5% (v/v) fetal bovine serum were added to each well and cultured for 48 hours. After the culture was completed, the amount of free collagen in the supernatant was quantified by ELISA. Measurements were performed in triplicate (N=3).
The amount of collagen produced when the sample was measured at a concentration of 10 mM or less was compared with that of the control group, and the results (% values when the control group was set to 100%) are shown in Table 17 based on the following criteria. • <100%: ± • 100-140%: + • 140%<: ++ [Table 17]
On the technique in general: An ELISA detects its analyte on a solid surface through an enzyme-linked reagent.

The test system of data set [2] is Normal human epidermal keratinocytes. Nature of the data set: Antioxidant effect: ROS production inhibition after H2O2 (DCFHDA probe). The settings on record: sample at 10 mM or less, 24 hours, then 0.2 mM H2O2 for 2 hours, N=4. It is filed as cell-based. The method, then:
Normal human epidermal keratinocytes were seeded onto a 96-well plate using KG2 medium at a cell density of 2.0 × 10^4 cells/well. After 24 hours of pre-incubation, samples adjusted to a predetermined concentration in KG2 medium were added to each well. After 24 hours of incubation, the medium was removed, followed by washing with HBSS(-) and the incorporation of the ROS-reactive fluorescent probe DCFHDA for 30 minutes. The cells were again washed with HBSS(-), treated with 0.2 mM H2O2, and incubated for 2 hours. The fluorescence intensity was measured, and the amount of ROS produced per unit protein was calculated by dividing the fluorescence intensity by the amount of protein quantified by the BCA method, resulting in an analytical value of 1. Furthermore, the amount of ROS production calculated without adding the sample adjusted to a predetermined concentration using the above test method was set to analytical value 2; and the amount of ROS production calculated without adding the sample or 0.2 mM H2O2 was set to analytical value 3.
ROS production inhibition rate (%) was calculated using the following formula. The higher the ROS production inhibition rate, the greater the antioxidant effect can be evaluated to be.
ROS production inhibition rate (%) = [(analysis value 2) - (analysis value 1)] / [(analysis value 2) - (analysis value 3)] × 100
The ROS production inhibition rate when the sample was measured at a concentration of 10 mM or less was evaluated as follows. Note that the measurement was performed in N=4. • <20%: + • 20-40%: ++ • 40%<: +++ [Table 21]

For data set [3], the system named is Normal human dermal fibroblasts (NHDF). Nature of the data set: Hyaluronic acid production promoting effect (ELISA of supernatant). It counts as cell-based. The settings on record: sample at 10 mM or less in serum-free D-MEM, cultured 48 hours, % of control group (100%), N=3. Summed up: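 NHDF pre-incubated 24 h in D-MEM/5% FBS, then exposed to samples (10 mM or less) in serum-free D-MEM for 48 h. Supernatant hyaluronic acid measured by ELISA, triplicate. Output expressed as % of untreated control (control = 100%), graded ±/+/++ at <100%, 100-120%, >120%.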

The nature of data set [4]: Stability test -1: odor and coloration scored by 10 panelists. It is filed as physicochemical. As to conditions: Test Example 1, aqueous solution, total score of 10 panelists. The method, then: For each of the samples of Synthesis Examples 1 to 6, 1% aqueous solutions were adjusted to pH 3, 5, 7, 8, and 9 with a dilute potassium hydroxide aqueous solution, and then placed in 50 mL screw tubes and • 2: Color changes compared to immediately after preparation. • 1: Strongly colored compared to immediately after preparation. Based on the results of the above evaluation, the following classification was made: • ○: Total score of 10 panelists is 25 or more • △: Total score of 10 panelists is 16-24 • ×: The total score of 10 panelists is 15 or less [Table 10]

A short description of data set [5]: Stability test -1: residual rate of 1% aqueous solutions at pH 3 to 9 on storage. It is filed as physicochemical. The settings on record: 1% aqueous solution.
Data set [6] can be described thus: Stability test -2: residual rate in cream of pH 7 or 9 stored at 50°C. As to conditions: cream with 4.0 W/W% derivative. It counts as physicochemical. Summed up: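 Each derivative was formulated into a cream by heating and mixing two component phases, cooling, then adding a third component, giving a final pH of 7 or 9. The creams were kept at 50°C for up to 4 weeks, and the remaining amount of derivative was measured to give a residual rate.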

The nature of data set [7]: Stability test -2: odor and coloration of cream stored at 50°C. It counts as physicochemical. As to conditions: Test Example 2, cream stored at 50°C, total score of 10 panelists. Summed up:
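Creams at pH 7 or 9 containing the test samples stored at 50°C for 4 weeks. Odor and coloration scored by 10 panelists against the freshly prepared cream; total scores classed as ○ (25 or more), △ (16-24) or × (15 or less).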

For `O=C1O[C@H]([C@@H](O)CO)C(O)=C1OCC(O)CO` (stereo partly shown) [2-O-glyceryl ascorbic acid, reference compound], the Collagen production-promoting effect result in data set [1] is reported as “+ (100-140%)”. In addition, the “Antioxidant effect (ROS production inhibition rate)” value in data set [2] is given as “+ (<20%)”.

For the molecule `O=C1O[C@H]([C@@H](O)CO)C(OCC(O)CO)=C1O` (stereo partly shown) [3-O-glyceryl ascorbic acid, reference compound], the Collagen production-promoting effect result in data set [1] is recorded as “+ (100-140%)”. Further, the “Antioxidant effect (ROS production inhibition rate)” value in data set [2] is given as “+ (<20%)”.

As to `O=C1OC2C(O)COC23OCCCCOC13` (stereo not shown) [synthesis Example 33, 4-hydroxy-2,6,9,14-tetraoxatricyclo [6.6.0.0^1.5] tetradecan-7-one], the “Hyaluronic acid production-promoting effect” value in data set [3] is given as “+ (100-120%)”. Also, in data set [2], the “Antioxidant effect (ROS production inhibition rate)” value is “++ (20-40%)”.

Turning to `O=C1OC2C(O)COC23OCCCOC13` (stereo not shown) [synthesis Example 34, 4-hydroxy-2,6,9,13-tetraoxatricyclo [6.5.0.0^1.5] tridecan-7-one], the “Hyaluronic acid production-promoting effect” value in data set [3] is “+ (100-120%)”. Besides, in data set [2], the “Antioxidant effect (ROS production inhibition rate)” value is on record as “++ (20-40%)”.

As to `O=C1OC(C(O)CO)C2=C1OCC(O)CO2` (stereo not shown) [synthesis example 4, 2,3-O-(2-hydroxypropane-1,3-diyl) ascorbic acid], the “Hyaluronic acid production-promoting effect” value in data set [3] was “++ (120%<)”. In addition, in data set [1], the Collagen production-promoting effect result is recorded as “+ (100-140%)”. Moreover, in data set [4], the “Coloration After 2 weeks” value was “○ (Total score of 10 panelists is 25 or more)”, the “Odor After 2 weeks” value was “○ (Total score of 10 panelists is 25 or more)”, the “Coloration After 4 weeks” value is listed as “○ (Total score of 10 panelists is 25 or more)” and the “Odor After 4 weeks” value is on record as “○ (Total score of 10 panelists is 25 or more)”. Besides, in data set [5] (pH3, stored at 50°C), the “Residual Rate After 2 weeks” value is “⊚” and the “Residual Rate After 4 weeks” value is recorded as “⊚”. In data set [5] (pH5, stored at 50°C), the “Residual Rate After 2 weeks” value is “⊚” and the “Residual Rate After 4 weeks” value is given as “⊚”. Moreover, in data set [5] (pH7, stored at 50°C), the “Residual Rate After 2 weeks” value was “○” and the “Residual Rate After 4 weeks” value is “○”. For the same molecule, in data set [5] (pH8, stored at 50°C), the “Residual Rate After 2 weeks” value is “○” and the “Residual Rate After 4 weeks” value was “Δ”. In data set [5] (pH9, stored at 50°C), the “Residual Rate After 2 weeks” value is listed as “○” and the “Residual Rate After 4 weeks” value is on record as “Δ”.

Consider `O=C1OC(C(O)CO)C2=C1OC(CO)CO2` (stereo not shown) [synthesis example 5, 2,3-O-(1-hydroxymethyl-1,2-ethanediyl) ascorbic acid], for which, in data set [3], the “Hyaluronic acid production-promoting effect” value is given as “+ (100-120%)”. Moreover, the Collagen production-promoting effect entry in data set [1] was “+ (100-140%)”. Also, in data set [4], the “Coloration After 2 weeks” value was “○ (Total score of 10 panelists is 25 or more)”, the “Odor After 2 weeks” value is recorded as “○ (Total score of 10 panelists is 25 or more)”, the “Coloration After 4 weeks” value is “○ (Total score of 10 panelists is 25 or more)” and the “Odor After 4 weeks” value is given as “○ (Total score of 10 panelists is 25 or more)”. Besides, in data set [5] (pH3, stored at 50°C), the “Residual Rate After 2 weeks” value is listed as “⊚” and the “Residual Rate After 4 weeks” value is listed as “⊚”. Moreover, in data set [5] (pH5, stored at 50°C), the “Residual Rate After 2 weeks” value is reported as “⊚” and the “Residual Rate After 4 weeks” value was “⊚”. Besides, in data set [5] (pH7, stored at 50°C), the “Residual Rate After 2 weeks” value is “○” and the “Residual Rate After 4 weeks” value is on record as “Δ”. Further, in data set [5] (pH8, stored at 50°C), the “Residual Rate After 2 weeks” value was “○” and the “Residual Rate After 4 weeks” value is “Δ”. Also, in data set [5] (pH9, stored at 50°C), the “Residual Rate After 2 weeks” value is recorded as “○” and the “Residual Rate After 4 weeks” value is on record as “Δ”.

As for `O=C1OC(C(O)CO)C2=C1OCC1(COC1)CO2` (stereo not shown) [synthesis example 6, 2,3-O-(3,3-dimethyleneoxetane) ascorbic acid], in data set [3], the “Hyaluronic acid production-promoting effect” value is given as “++ (120%<)”. For the same molecule, in data set [1], the Collagen production-promoting effect result is on record as “++ (140%<)”. Besides, in data set [4], the “Coloration After 2 weeks” value is on record as “○ (Total score of 10 panelists is 25 or more)”, the “Odor After 2 weeks” value is given as “○ (Total score of 10 panelists is 25 or more)”, the “Coloration After 4 weeks” value is given as “○ (Total score of 10 panelists is 25 or more)” and the “Odor After 4 weeks” value was “○ (Total score of 10 panelists is 25 or more)”. Moreover, in data set [5] (pH3, stored at 50°C), the “Residual Rate After 2 weeks” value was “⊚” and the “Residual Rate After 4 weeks” value is “⊚”. Further, in data set [5] (pH5, stored at 50°C), the “Residual Rate After 2 weeks” value is listed as “⊚” and the “Residual Rate After 4 weeks” value is “⊚”. In data set [5] (pH7, stored at 50°C), the “Residual Rate After 2 weeks” value is on record as “○” and the “Residual Rate After 4 weeks” value is “○”. Further, in data set [5] (pH8, stored at 50°C), the “Residual Rate After 2 weeks” value is recorded as “○” and the “Residual Rate After 4 weeks” value is “Δ”. For the same molecule, in data set [5] (pH9, stored at 50°C), the “Residual Rate After 2 weeks” value is reported as “○” and the “Residual Rate After 4 weeks” value is reported as “Δ”.

For the molecule `CCCCCCCCCCCC(=O)OCC(O)C1OC(=O)C2=C1OCCCCO2` (stereo not shown) [synthesis example 13, 6-O-lauroyl-2,3-O-(1,4-butanediyl) ascorbic acid], in data set [6] (pH7, stored at 50°C), the “Residual Rate After 2 weeks” value is listed as “⊚ (95% or more)” and the “Residual Rate After 4 weeks” value is given as “⊚ (95% or more)”. In data set [6] (pH9, stored at 50°C), the “Residual Rate After 2 weeks” value is “⊚ (95% or more)” and the “Residual Rate After 4 weeks” value was “⊚ (95% or more)”. Moreover, in data set [3], the “Hyaluronic acid production-promoting effect” value is on record as “++ (120%<)”. In data set [7], the “Coloration After 2 weeks” value is “○ (Total score of 10 panelists is 25 or more)”, the “Odor After 2 weeks” value is “○ (Total score of 10 panelists is 25 or more)”, the “Coloration After 4 weeks” value is given as “○ (Total score of 10 panelists is 25 or more)” and the “Odor After 4 weeks” value is listed as “Δ”. Moreover, the “Antioxidant effect (ROS production inhibition rate)” value in data set [2] was “+ (<20%)”.

With `CCCCCCCCCCCC(=O)OCC(OC(=O)CCCCCCCCCCC)C1OC(=O)C2=C1OCCCCO2` (stereo not shown) [synthesis example 14, 5,6-O-dilauroyl-2,3-O-(1,4-butanediyl) ascorbic acid], in data set [6] (pH7, stored at 50°C), the “Residual Rate After 2 weeks” value is “⊚ (95% or more)” and the “Residual Rate After 4 weeks” value is reported as “⊚ (95% or more)”. Also, in data set [6] (pH9, stored at 50°C), the “Residual Rate After 2 weeks” value is “⊚ (95% or more)” and the “Residual Rate After 4 weeks” value is recorded as “○ (85% or more, less than 95%)”. In addition, in data set [3], the “Hyaluronic acid production-promoting effect” value is reported as “++ (120%<)”. In data set [7], the “Coloration After 2 weeks” value is listed as “○ (Total score of 10 panelists is 25 or more)”, the “Odor After 2 weeks” value is listed as “○ (Total score of 10 panelists is 25 or more)”, the “Coloration After 4 weeks” value is listed as “○ (Total score of 10 panelists is 25 or more)” and the “Odor After 4 weeks” value was “Δ”. The “Antioxidant effect (ROS production inhibition rate)” value in data set [2] was “+ (<20%)”.

Values taken from patent publication EP4818172A1, “ASCORBIC ACID DERIVATIVES AND COSMETIC CONTAINING SAME” (Seiwa Kasei Co., Ltd., priority 2023, dated 2025).
